Measurements as given in patent US8168795B2, “Selective sphingosine-1-phosphate receptor antagonists” (Allergan, Inc., priority 2009, dated 2012).

molecular target: S1P3 receptor (Homo sapiens, UniProt Q99500); test: GTP γ35S binding assay, antagonist mode; assay type: biochemical; conditions: antagonist assay, reaction mixture contained 10 nM S1P; membranes; read-out: S1P3 GTPγ^35S IC50
Method: B. Novel compounds were synthesized and tested for S1P3 activity using the GTP γ^35S binding assay. GTP γ^35S binding was measured in the medium containing (mM) HEPES 25, pH 7.4, MgCl2 10, NaCl 100, dithiothreitol 0.5, digitonin 0.003%, 0.2 nM GTP γ^35S, and 5 μg membrane protein in a volume of 150 μl. Test compounds were included in the concentration range from 0.08 to 5,000 nM unless indicated otherwise. Membranes were incubated with 100 μM 5′-adenylylimmidodiphosphate for 30 min, and subsequently with 10 μM GDP for 10 min on ice. Drug solutions and membrane were mixed, and then reactions were initiated by adding GTP γ^35S and continued for 30 min at 25° C. Reaction mixtures were filtered over Whatman GF/B filters under vacuum, and washed three times with 3 mL of ice-cold buffer (HEPES 25, pH7.4, MgCl2 10 and NaCl 100). Filters were dried and mixed with scintillant, and counted for ^35S activity using a β-counter. Agonist-induced GTP γ^35S binding was obtained by subtracting that in the absence of agonist. Binding data were analyzed using a non-linear regression method. In case of antagonist assay, the reaction mixture contained 10 nM S1P in the presence of test antagonist at concentrations ranging from 0.08 to 5000 nM.

S1P3 receptor, sequence (Q99500 whole entry): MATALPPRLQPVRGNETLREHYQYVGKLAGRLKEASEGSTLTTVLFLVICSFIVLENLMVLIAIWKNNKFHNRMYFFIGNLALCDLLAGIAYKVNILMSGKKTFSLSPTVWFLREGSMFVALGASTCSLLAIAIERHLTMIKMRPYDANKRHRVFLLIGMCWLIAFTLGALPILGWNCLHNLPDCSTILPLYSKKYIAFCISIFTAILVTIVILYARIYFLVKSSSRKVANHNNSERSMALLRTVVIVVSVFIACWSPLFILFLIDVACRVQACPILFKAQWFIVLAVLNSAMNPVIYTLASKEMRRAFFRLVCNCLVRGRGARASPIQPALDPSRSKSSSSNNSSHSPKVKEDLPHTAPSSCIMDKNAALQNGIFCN

| SMILES | IC50 [nM] |
| --- | --- |
| O=C(NC(Nc1cnc(Cl)nc1)C(F)(F)C(F)(F)F)c1ccc(Br)cn1 (stereo not drawn) [Compound-35, 5-Bromo-N-(1-(2-chloropyrimidin-5-ylamino)-2,2,3,3,3-pentafluoropropyl)picolinamide] | 2 |
| CC1CCC(NC(NC(=O)c2ccc(Br)cc2)C(Cl)(Cl)Cl)CC1 (single isomer, unassigned) [Compound-49, 4-bromo-N-(2,2,2-trichloro-1-(4-methylcyclohexylamino)ethyl)benzamide] | 671 |
| O=C(NC(Nc1ccc(Cl)cc1)C(F)(F)C(F)(F)C(F)(F)C(F)(F)F)c1ccc(Br)cn1 (stereo not drawn) [Compound-29] | 5.5 |
| O=C(NC(Nc1ccc(Cl)cc1)C(F)(F)C(F)(F)F)c1ccc(Br)cn1 (single isomer, unassigned; (-)) [Compound-32, (−)-5-bromo-N-(1-(4-chlorophenylamino)-2,2,3,3,3-pentafluoropropyl)picolinamide] | 1.3 |
| COc1cccc(C(=O)C(NC(=O)c2ccc(Br)cn2)Nc2ccc(Cl)cc2)c1 (stereo not drawn) [Compound-3, 5-bromo-N-(1-(4-chlorophenylamino)-2-(3-methoxyphenyl)-2-oxoethyl)picolinamide] | 5.2 |
| CCC(Cl)(Cl)C(NC(=O)c1ccc(Br)cn1)Nc1ccc(Cl)cc1 (stereo not drawn) [Compound-27, 5-Bromo-N-(2,2-dichloro-1-(4-chlorophenylamino)butyl)picolinamide] | 56 |

The next lines start with the values.

| IC50 [nM] | SMILES |
| --- | --- |
| 115 | O=C(NC(Nc1ccc(Cl)cc1)c1ccc(Cl)cc1)c1ccc(Br)cn1 (stereo not drawn) [Compound-7, 5-Bromo-N-((4-chlorophenyl)(4-chlorophenylamino)methyl)picolinamide] |
| 59 | O=C(NC(Nc1cnc(Cl)nc1)C(F)(F)C(F)(F)C(F)(F)C(F)(F)C(F)(F)C(F)F)c1ccc(Br)cn1 (stereo not drawn) [Compound-37, 5-Bromo-N-(1-(2-chloropyrimidin-5-ylamino)-2,2,3,3,4,4,5,5,6,6,7,7-dodecafluoroheptyl)picolinamide] |
| 4.7 | O=C(NC(Nc1ccc(Cl)cc1)c1cc2ccccc2o1)c1ccc(Br)cn1 (stereo not drawn) [Compound-10, N-(benzofuran-2-yl(4-chlorophenylamino)methyl)-5-bromopicolinamide] |
| 10 | O=C(NC(Nc1ccc(Cl)cc1)C(=O)c1cccc2ccccc12)c1ccc(Br)cn1 (stereo not drawn) [Compound-1, 5-bromo-N-(1-(4-chlorophenylamino)-2-(naphthalen-1-yl)-2-oxoethyl)picolinamide] |
| 31 | O=C(NC(Nc1ccc(Cl)cc1)C(=O)c1ccc2ccccc2c1)c1ccc(Br)cn1 (stereo not drawn) [Compound-2, 5-bromo-N-(1-(4-chlorophenylamino)-2-(naphthalen-2-yl)-2-oxoethyl)picolinamide] |

same assay, conditions: enantiomers of Compound-28 separated by chiral HPLC; assay not stated

| activity of separated enantiomer | SMILES |
| --- | --- |
| active enantiomer | O=C(NC(Nc1ccc(Cl)cc1)C(F)(F)C(F)(F)F)c1ccc(Br)cn1 (single isomer, unassigned; (-)) [Compound-32, (−)-5-bromo-N-(1-(4-chlorophenylamino)-2,2,3,3,3-pentafluoropropyl)picolinamide] |
